Laboratory results taken from PubChem BioAssay (NCI).
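Values below derive from 48-hour exposures of cells grown in 96-well plates, with endpoints linearly interpolated between the two concentrations bracketing the appropriate inhibition level. TGI is the concentration that stops growth completely.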

How the values were obtained:
Experiment in all cases: NCI tumour cell line growth inhibition, 48 h
[1] = system: A549 NSCLC
[2] = system: SF-295 CNS
[3] = system: HCC-2998 colon
[4] = system: T-47D breast
[5] = system: SW-620 colon
[6] = system: SNB-75 CNS
[7] = system: NCI/ADR-RES ovarian
[8] = system: MDA-MB-231 breast
[9] = system: NCI-H226 lung
[10] = system: SR leukemia
[11] = system: NCI-H460 lung
[12] = system: PC-3 prostate
[13] = system: U251 CNS
[14] = system: MOLT-4 leukemia
[15] = system: HOP-62 NSCLC
[16] = system: UO-31 renal
[17] = system: LOX IMVI melanoma
[18] = system: MDA-MB-435
[19] = system: ACHN renal
[20] = system: M14 melanoma
[21] = system: SK-MEL-28 melanoma
[22] = system: HCT-116 colon
[23] = system: SK-MEL-5 melanoma
[24] = system: NCI-H23 lung
[25] = system: SN12C renal
[26] = system: CCRF-CEM leukemia
[27] = system: NCI-H522 lung
[28] = system: K-562 leukemia
[29] = system: SF-268 CNS
[30] = system: MDA-N
[31] = system: MALME-3M melanoma
[32] = system: SK-MEL-2 melanoma
[33] = system: CAKI-1 renal
[34] = system: UACC-257 melanoma
[35] = system: SNB-19 CNS
[36] = system: RXF 393 renal
[37] = system: OVCAR-8 ovarian
[38] = system: OVCAR-5 ovarian
[39] = system: KM12 colon
[40] = system: 786-0 renal
[41] = system: EKVX NSCLC
[42] = system: SK-OV-3 ovarian
[43] = system: MCF7 breast
[44] = system: OVCAR-4 ovarian
[45] = system: COLO 205 colon
[46] = system: HCT-15 colon
[47] = system: UACC-62 melanoma
[48] = system: HOP-92 NSCLC
[49] = system: SF-539 CNS
[50] = system: IGROV1 ovarian
[51] = system: HT29 colon
[52] = system: OVCAR-3 ovarian
[53] = system: A498 renal
[54] = system: DU-145 prostate

Measured: TGI

O=S(=O)(O)CCS
> 100 µM: all assays above
